Reference: patent US10676504B2 (Colorado State University Research Foundation, priority 2015, dated 2020)
Like-named read-outs stand apart in the source and are kept apart here.

Assays:
[1] = system: NCI 60 cell panel; assay type: cell-based; conditions: one-dose
Text: A) Eight compounds were submitted to the National Cancer Institute (NCI) 60 tumor cell line drug discovery program (DTP) for anticancer screening.
(§1) All compounds submitted for screening were initially tested at a single high dose (10^-5 M) against the fill NCI 60 cell panel. Only compounds which satisfied pre-determined threshold inhibition criteria in a minimum number of cell lines progressed to a second round of testing utilizing a more comprehensive 5-dose inhibition assay. The threshold inhibition criteria for progression to the 5-dose assays were selected to efficiently capture compounds with anti-proliferative activity based on historical DTP screening data.

[2] = system: non-small cell lung cancer cell lines; assay: NCI 60 one-dose screen; assay type: cell-based; conditions: of the 9 cell lines
[3] = system: colon cancer cell lines; assay: NCI 60 one-dose screen; assay type: cell-based; conditions: of the 7 colon
[4] = system: CNS cancer cell lines; assay: NCI 60 one-dose screen; assay type: cell-based; conditions: of the 6 CNS
[5] = system: melanoma cell lines; assay: NCI 60 one-dose screen; assay type: cell-based
[6] = system: ovarian cancer cell lines; assay: NCI 60 one-dose screen; assay type: cell-based; conditions: of the 7 ovarian
[7] = system: renal cancer cell lines; assay: NCI 60 one-dose screen; assay type: cell-based; conditions: of the 6 renal
[8] = system: breast cancer cells lines; assay: NCI 60 one-dose screen; assay type: cell-based; conditions: of the 6 breast
[9] = system: NCI-60 cancer cell lines; conditions: five-dose
Text: as §1
(§2) Concentrations for G150, IC50, TGI, and LC50 were calculated for all cell lines tested, and heat plots were prepared.

[10] = system: colon cancer cell lines
Text: as §1, §2

[11] = system: CNS cancer cell lines
Text: as §1, §2

[12] = system: melanoma cell lines
[13] = system: ovarian cancer cell lines
Text: as §1, §2

[14] = system: renal cancer cell lines
Text: as §1, §2

[15] = system: NCI-60 cancer cell lines; assay: cells
Text: as §1, §2

[16] = system: colon cancer cell lines; assay: cells; conditions: read-out: Average Concentration (M), LC50, Colon
Text: as §1, §2

[17] = system: CNS cancer cell lines; assay: cells; conditions: read-out: Average Concentration (M), LC50, CNS
Text: as §1, §2

[18] = system: melanoma cell lines; assay: cells; conditions: read-out: Average Concentration (M), LC50, Melanoma
[19] = system: ovarian cancer cell lines; assay: cells; conditions: read-out: Average Concentration (M), LC50, Ovarian
Text: as §1, §2

[20] = system: renal cancer cell lines; assay: cells; conditions: read-out: Average Concentration (M), LC50, Renal
Text: as §1, §2

## CCCCCCCC(=O)SCC/C=C/[C@@H]1CC(=O)NCc2nc(co2)C2=N[C@@](C)(CS2)C(=O)N[C@@H](C(C)C)C(=O)O1 [compound of formula D]
[1]; 58 cell lines tested
  percent of NCI cell lines with some level of lethality: 55%
[1]; of 58 cell lines tested
  NCI cell lines with some level of lethality: 32
[2]
  cell lines with some level of lethality: 7
[3]
  cell lines with some level of lethality: 4
[4]
  cell lines with some level of lethality: 2
[5]; one-dose studies
  lethality in select melanoma cell lines: > 90%
[5]; one-dose, of the 9 melanoma
  cell lines with some level of lethality: 8
[6]
  cell lines with some level of lethality: 4
[7]
  cell lines with some level of lethality: 4
[8]
  cell lines with some level of lethality: 3
[9]; 50% Growth Inhibition
  Percent of Cell Lines Impacted (%), GI50: 100%
[9]; 50% Lethal Concentration reached
  Percent of Cell Lines Impacted (%), LC50: 16%
[9]; Total Growth Inhibition
  Percent of Cell Lines Impacted (%), TGI: 67%
  Total Impacted Cell Lines (n), TGI: 38
[9]; average over impacted cell lines
  Average Concentration (M), TGI: 4.57e-06 M
[10]
  Total Impacted Cell Lines (n), LC50, Colon: 2
[10]; five-dose
  Percent of Cell Lines Impacted (%), LC50, Colon: 29%
[11]
  Total Impacted Cell Lines (n), LC50, CNS: 1
[11]; five-dose
  Percent of Cell Lines Impacted (%), LC50, CNS: 20%
[12]
  Total Impacted Cell Lines (n), LC50, Melanoma: 3
[12]; five-dose
  Percent of Cell Lines Impacted (%), LC50, Melanoma: 38%
[13]
  Total Impacted Cell Lines (n), LC50, Ovarian: 1
[13]; five-dose
  Percent of Cell Lines Impacted (%), LC50, Ovarian: 14%
[14]
  Total Impacted Cell Lines (n), LC50, Renal: 2
[14]; five-dose
  Percent of Cell Lines Impacted (%), LC50, Renal: 25%
[15]; read-out: Average Concentration (M), GI50
  GI50: 3.83e-08 M
[15]; read-out: Average Concentration (M), LC50
  CC50: 5.48e-06 M
[15]; read-out: GI50 concentrations (M), order of magnitude
  GI50: 1e-08 M
[15]; read-out: LC50 concentrations, order of magnitude
  CC50: 1e-06 M
[16]
  CC50: 1.47e-06 M
[17]
  CC50: 1.95e-05 M
[18]
  CC50: 3.72e-07 M
[19]
  CC50: 2.34e-06 M
[20]
  CC50: 1.17e-05 M
